From US12018024B2, “Compounds and compositions for the treatment of cryptosporidiosis” (Novartis AG, priority 2020, dated 2024)

Legend:
[1] = molecular target: H.s. PI(4)K (Homo sapiens, UniProt Q9UBF8); assay: H.s. PI(4)K IC50; type: biochemical; settings: read-out: (d) H.s.* PI(4)K IC50
[2] = test system: Cryptosporidium parvum; assay: Cytopathic effect (CPE) based assay, C. parvum-infected HCT-8 cells; type: cell-based; settings: HCT-8, 48 h, read-out: (b) C.p.* CPE EC50 (μM)
Experimental: Human ileocecal colorectal adenocarcinoma cells (HCT-8 [HRT-18] ATCC, CCL-34) were maintained in T-175 flasks (Corning, 431080) in complete growth medium (RPMI-1640 medium (Gibco, 11875) supplemented with 10% heat-inactivated horse serum (Gibco, 26050), 1× MEM non-essential amino acids (Gibco, 11140), 10 mM HEPES (Gibco, 15630), 100 units/mL penicillin, and 100 units/mL streptomycin) at 37° C. and 5% CO2 in a humidified incubator. Cultures were passaged twice weekly using 10 mL of 1× Phosphate-Buffered Saline (PBS) without Ca^2+ and Mg^2+ (Gibco, 20012) for washing and 3-5 mL per T-175 flask of TrypLE Express Enzyme (Gibco, 12604) for dissociation of adherent cells.
Cryptosporidium parvum oocysts purchased from the Sterling Laboratory, University of Arizona (Iowa isolate) were purified from infected calf feces using discontinuous sucrose and cesium chloride centrifugation gradients and stored in PBS solution containing 0.01% Tween 20, 100 units/mL penicillin and 100 units/mL gentamicin.
Excystaion and infection: Excystation and infection protocols were developed following established methods with some modifications (Gut & Nelson, 1999, Upton et al., 1995, Bessoff et al., 2013). Briefly, oocysts were primed in 1 mL of 10 mM hydrochloric acid in 1× Hank's Balanced Salt Solution (HBSS) (Gibco, 14025) for 10 minutes with agitation at 1000 rpm, 37° C. on an Eppendorf thermomixer, then washed twice with 1 mL of room temperature non-acidic 1× HBSS by centrifugation at 13,000 rpm for 3 minutes at 25° C. Primed oocysts were further excysted at a concentration of 1×10^6 oocysts/μL in parasite infection medium consisting of a pre-warmed and pre-gassed 1:1 formulation of Leibovitz's L-15 medium (Gibco, 11415) and UltraCULTURE medium (Lonza, 12-725F) supplemented with 2 mM sodium taurocholate (Sigma, 86339-1), 10% heat-inactivated horse serum, and 200 μM L-ascorbic acid (Sigma, 95210) at 25° C. for 10 minutes. HCT-8 monolayer cells were infected with excysted cryptosporidium at a specified multiplicity of infection (MOI). All dilutions for subsequent assays were performed in parasite infection medium without sodium taurocholate. Pre-excysted oocysts were enumerated microscopically using a C-Chip disposable hemocytometer (NanoEnTek, DHC-N01).
Compound and assay plate preparation: Compound powders were dissolved in neat DMSO (Fisher, D4121) to 10 mM and stored at 4° C. prior to dilution into source plates. Dilutions were carried out using a Microlab STAR liquid handler (Hamilton) to obtain compound source plates containing the ten-point or eight-point three fold dilutions starting from 10 mM in duplicates. Source plates were stored at 4° C. prior to spotting into assay plates. Before administration, all compound source plates were equilibrated to room temperature. A specified volume of compounds from source plate were spotted to assay plate using an Echo Acoustic liquid handler (LABCYTE, 550) so that the final DMSO concentration was less than 0.5%. Each assay plate a specified number of DMSO-treated negative control wells and a well-studied potent active compound at 100 nM as positive control. As a quality control, all positive and negative-control wells were used to calculate a Z′-value and signal to noise ratio (S:N) for each plate.
Cryptosporidium spp are obligate-intracellular parasites that infect intestinal epithelial cells and the host cell is killed upon parasite egress. […] The loss of epithelial cells is due to both rapid parasite invasion/multiplication/egress and also pro-inflammatory immune response (Adams et al., 1994, Griffiths et al., 1994). We have observed a consistent cytopathic effect (CPE) in HCT-8 cells with C. spp infection the loss of viability of the host cells using CellTiter-Glo reagent.
Confluent HCT-8 cells in T-175 flasks were directly infected with excysted oocysts at an MOI (host to parasite) of 1:2 for C. parvum and 1:4 for C. hominis. […]

[3] = molecular target: C. parvum PI(4)K (Cryptosporidium parvum, UniProt Q5CVD3); assay: CpPI(4)K enzymatic assay (Transcreener ADP2 FP); type: biochemical
C. parvum PI(4)K, sequence (Q5CVD3 entry or part of it): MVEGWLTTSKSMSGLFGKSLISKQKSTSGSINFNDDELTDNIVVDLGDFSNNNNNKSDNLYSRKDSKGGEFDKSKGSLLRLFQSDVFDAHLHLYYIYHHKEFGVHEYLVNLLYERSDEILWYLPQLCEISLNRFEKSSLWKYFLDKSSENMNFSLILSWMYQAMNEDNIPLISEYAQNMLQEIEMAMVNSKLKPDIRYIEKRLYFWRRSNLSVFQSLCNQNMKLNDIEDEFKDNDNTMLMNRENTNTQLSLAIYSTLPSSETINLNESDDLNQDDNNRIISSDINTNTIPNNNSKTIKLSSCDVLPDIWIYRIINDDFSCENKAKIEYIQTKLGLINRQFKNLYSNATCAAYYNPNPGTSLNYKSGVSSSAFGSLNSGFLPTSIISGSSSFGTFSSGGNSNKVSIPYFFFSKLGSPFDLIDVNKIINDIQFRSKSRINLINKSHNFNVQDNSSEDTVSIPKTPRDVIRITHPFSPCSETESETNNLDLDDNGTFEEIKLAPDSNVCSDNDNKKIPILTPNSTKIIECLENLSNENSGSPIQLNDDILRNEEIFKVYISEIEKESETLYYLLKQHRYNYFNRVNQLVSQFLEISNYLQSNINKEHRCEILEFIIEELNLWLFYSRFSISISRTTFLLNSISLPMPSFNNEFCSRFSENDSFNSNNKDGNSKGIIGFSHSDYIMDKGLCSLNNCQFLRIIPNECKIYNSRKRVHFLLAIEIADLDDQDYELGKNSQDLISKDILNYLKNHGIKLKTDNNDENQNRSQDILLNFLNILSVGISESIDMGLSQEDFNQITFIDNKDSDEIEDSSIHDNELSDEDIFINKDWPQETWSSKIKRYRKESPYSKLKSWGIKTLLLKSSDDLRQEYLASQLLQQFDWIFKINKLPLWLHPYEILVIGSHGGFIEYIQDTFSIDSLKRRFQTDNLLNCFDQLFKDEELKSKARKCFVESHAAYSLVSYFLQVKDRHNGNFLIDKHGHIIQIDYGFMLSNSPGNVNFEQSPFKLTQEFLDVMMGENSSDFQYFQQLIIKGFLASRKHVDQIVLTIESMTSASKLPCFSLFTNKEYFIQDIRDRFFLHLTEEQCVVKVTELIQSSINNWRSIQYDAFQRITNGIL
From the text: Baculovirus expression and purification of C. parvum phosphatidylinositol 4-kinase: The full-length coding sequence of C. parvum PI(4)K (cgd8_4500, 1114 amino acids) was codon-optimized for baculovirus expression, synthesized and cloned into pFastBac-HTb (Invitrogen 10584-027) in frame with the amino-terminal polyhistidine tag using the BamHI and HindIII restriction sites. Recombinant pFastBacHTb-CpPI(4)K bacmid clones were generated by site-specific transposition in E. coli DH10Bac (Invitrogen 10361-012). The bacmid sequence was confirmed by direct DNA sequencing to confirm a lack of mutations across the whole gene. The subsequent steps for bacmid isolation, transfection and selection of the recombinant viruses were performed according to the manufacturer's protocol (Bac-to-Bac system #10359, Invitrogen).
SF9 cells, cultured in […] serum-free medium, were transfected with recombinant baculovirus at 1/200 (v/v) and incubated at 27° C. for 72 h. The pellets were collected after centrifugation and re-suspended in cell lysis buffer (20 mM Tris-HCl, pH 7.5, 300 mM NaCl, 1 mM DTT, 20 mM imidazole, 0.01% Triton X-100 and 1× complete protease inhibitor cocktail without EDTA (Roche Diagnostics 04693116001)). The cell suspension was lysed by sonication and the clarified supernatant was loaded onto a 1 ml HisTrap affinity column (GE Healthcare) pre-equilibrated with buffer A (20 mM Tris-HCl, pH 7.5, 300 mM NaCl, 1 mM DTT, 20 mM Imidazole, and 1× complete protease inhibitor cocktail without EDTA). The column was washed with buffer B (buffer A containing 45 mM imidazole) and the bound protein of interest was eluted with buffer C (buffer A with 90 mM imidazole). The fractions containing CpPI(4)K were pooled, concentrated using Amicon Ultra-15 and purified by a gel-filtration column (Hi-Load 26/60 Superdex 200, GE Healthcare) equilibrated with 20 mM Tris, pH 7.5, 300 mM NaCl, 1 mM DTT and 1× protease inhibitor cocktail without EDTA. The concentrations of the purified protein (Mw 132.39 kda) was determined by using the protein molar extinction coefficient (ε280 nm=133,810 M^−1 cm^−1). Aliquots were flash frozen in liquid nitrogen and immediately stored at −80° C.
PI(4)K enzymatic Assay The CpPI(4)K enzymatic assay was performed as described earlier with a some modifications (McNamara et al., 2013). Briefly, L-α-phosphatidylinositol (Avanti Polar Lipid 840046), dissolved in 3% n-octylglucoside (Roche Diagnostics 10634425001), was used as the lipid substrate for the PI(4)K activity assay. CpPI(4)K was assayed using Transcreener ADP2 FP detection kit (BellBrook 3010) in a black, solid 384-well plate (Corning 3575). The final assay volume was 10 μl and contained 3 nM of the respective CpPI(4)K construct in 10 mM Tris, pH 7.5, 1 mM DTT, 3 μM ATP, 5 mM Mn2+, 0.05% Triton X-100 and 10 μM phosphatidylinositol/octylglucoside. The enzyme reaction was performed for 50 minutes at room temperature and was stopped by adding 10 μl of detection mix containing 1× stop buffer (50 mM HEPES, pH7.5, 400 mM NaCl, 20 mM EDTA, and 0.02% Brij-35), 2 nM AMP Alexa Fluor 633 tracer, and 20 μg ml^−1 ADP antibody. Fluorescence polarization measurements were performed on the Infinite M1000 plate reader (Tecan) with λex=635 nm and λem=680 nm (20-nm bandwidth). IC50 values were calculated using Graphpad Prism software.

H.s. PI(4)K, sequence (Q9UBF8 2-816 limits assumed): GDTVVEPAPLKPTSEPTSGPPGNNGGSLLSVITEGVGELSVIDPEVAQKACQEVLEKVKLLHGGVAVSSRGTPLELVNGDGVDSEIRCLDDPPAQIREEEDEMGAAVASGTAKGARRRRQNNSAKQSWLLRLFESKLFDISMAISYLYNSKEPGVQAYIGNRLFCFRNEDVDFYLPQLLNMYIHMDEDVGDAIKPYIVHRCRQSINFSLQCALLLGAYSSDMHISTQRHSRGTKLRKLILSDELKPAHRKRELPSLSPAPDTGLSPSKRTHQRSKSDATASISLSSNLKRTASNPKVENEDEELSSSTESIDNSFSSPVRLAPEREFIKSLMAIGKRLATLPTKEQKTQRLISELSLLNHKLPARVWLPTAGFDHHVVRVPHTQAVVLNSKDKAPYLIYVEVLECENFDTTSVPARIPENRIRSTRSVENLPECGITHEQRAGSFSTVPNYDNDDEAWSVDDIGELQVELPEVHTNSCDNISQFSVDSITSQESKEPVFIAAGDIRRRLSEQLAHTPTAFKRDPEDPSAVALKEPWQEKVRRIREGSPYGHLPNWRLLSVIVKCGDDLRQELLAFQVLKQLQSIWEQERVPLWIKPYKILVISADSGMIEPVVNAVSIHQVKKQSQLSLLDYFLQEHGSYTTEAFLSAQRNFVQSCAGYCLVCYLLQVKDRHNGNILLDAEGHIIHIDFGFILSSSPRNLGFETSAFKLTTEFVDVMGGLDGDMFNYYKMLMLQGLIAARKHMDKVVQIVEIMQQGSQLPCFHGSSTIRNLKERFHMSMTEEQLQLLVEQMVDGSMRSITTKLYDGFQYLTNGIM

| SMILES | IC50 [1] [µM] | EC50 [2] [µM] | IC50 [3] [µM] |
| --- | --- | --- | --- |
| CCOC(=O)OC(C)OC(=O)c1cc(N(C)C(=O)c2ccn3ncc(-c4ccc(C(N)=O)cc4)c3c2)ccc1Cl (racemic) [Example 1.14, rac-1-((Ethoxycarbonyl)oxy)ethyl 5-(3-(4-carbamoylphenyl)-N-methylpyrazolo[1,5-a]pyridine-5-carboxamido)-2-chlorobenzoate] | > 1 | > 1 | 0.1 to 1 |
| CN(C(=O)c1ccn2ncc(-c3ccc(C(N)=O)cc3)c2c1)c1ccc(Cl)c(C(=O)OCC2CCCO2)c1 (racemic) [Example 1.15, rac-(Tetrahydrofuran-2-yl)methyl 5-(3-(4-carbamoylphenyl)-N-methylpyrazolo[1,5-a]pyridine-5-carboxamido)-2-chlorobenzoate] |  | 0.1 to 1 | < 0.1 |
| CN(C(=O)c1ccn2ncc(-c3ccc(C(N)=O)cc3)c2c1)c1ccc(Cl)c(C(=O)OC(C)(C)C)c1 [Example 1.02, tert-Butyl 5-(3-(4-carbamoylphenyl)-N-methylpyrazolo[1,5-a]pyridine-5-carboxamido)-2-chlorobenzoate] |  | 0.1 to 1 | < 0.1 |
| CSCCOC(=O)c1cc(N(C)C(=O)c2ccn3ncc(-c4ccc(C(N)=O)cc4)c3c2)ccc1Cl [Example 1.04, 2-(Methylthio)ethyl 5-(3-(4-carbamoylphenyl)-N-methylpyrazolo[1,5-a]pyridine-5-carboxamido)-2-chlorobenzoate] |  | > 1 | < 0.1 |
| CC(C)COC(=O)c1cc(N(C)C(=O)c2ccn3ncc(-c4ccc(C(N)=O)cc4)c3c2)ccc1Cl [Example 1.05, Isobutyl 5-(3-(4-carbamoylphenyl)-N-methylpyrazolo[1,5-a]pyridine-5-carboxamido)-2-chlorobenzoate] |  | 0.1 to 1 | < 0.1 |
| COC(=O)COC(=O)c1cc(N(C)C(=O)c2ccn3ncc(-c4ccc(C(N)=O)cc4)c3c2)ccc1Cl [Example 1.06, 2-Methoxy-2-oxoethyl 5-(3-(4-carbamoylphenyl)-N-methylpyrazolo[1,5-a]pyridine-5-carboxamido)-2-chlorobenzoate] |  | > 1 | < 0.1 |
| CN(C(=O)c1ccn2ncc(-c3ccc(C(N)=O)cc3)c2c1)c1ccc(Cl)c(C(=O)OCc2cncs2)c1 [Example 1.07, Thiazol-5-ylmethyl 5-(3-(4-carbamoylphenyl)-N-methylpyrazolo[1,5-a]pyridine-5-carboxamido)-2-chlorobenzoate] |  | 0.1 to 1 | < 0.1 |
| CCOC(=O)c1cc(N(C)C(=O)c2ccn3ncc(-c4ccc(C(N)=O)cc4)c3c2)ccc1Cl [Example 1.09, Ethyl 5-(3-(4-carbamoylphenyl)-N-methylpyrazolo[1,5-a]pyridine-5-carboxamido)-2-chlorobenzoate] |  | 0.1 to 1 | < 0.1 |
| CN(C(=O)c1ccn2ncc(-c3ccc(C(N)=O)cc3)c2c1)c1ccc(Cl)c(C(=O)OCC(F)(F)F)c1 [Example 1.10, 2,2,2-Trifluoroethyl 5-(3-(4-carbamoylphenyl)-N-methylpyrazolo[1,5-a]pyridine-5-carboxamido)-2-chlorobenzoate] |  | > 1 | < 0.1 |
| COCCOC(=O)c1cc(N(C)C(=O)c2ccn3ncc(-c4ccc(C(N)=O)cc4)c3c2)ccc1Cl [Example 1.11, 2-Methoxyethyl 5-(3-(4-carbamoylphenyl)-N-methylpyrazolo[1,5-a]pyridine-5-carboxamido)-2-chlorobenzoate] |  | 0.1 to 1 | < 0.1 |
| CN(C)C(=O)COC(=O)c1cc(N(C)C(=O)c2ccn3ncc(-c4ccc(C(N)=O)cc4)c3c2)ccc1Cl [Example 1.12, 2-(Dimethylamino)-2-oxoethyl 5-(3-(4-carbamoylphenyl)-N-methylpyrazolo[1,5-a]pyridine-5-carboxamido)-2-chlorobenzoate] |  | 0.1 to 1 | < 0.1 |
| CC(C)OC(=O)c1cc(N(C)C(=O)c2ccn3ncc(-c4ccc(C(N)=O)cc4)c3c2)ccc1Cl [Example 1.13, Isopropyl 5-(3-(4-carbamoylphenyl)-N-methylpyrazolo[1,5-a]pyridine-5-carboxamido)-2-chlorobenzoate] |  | 0.1 to 1 | < 0.1 |
| CNC(=O)c1ccc(-c2cnn3ccc(C(=O)N(C)c4ccc(Cl)c(C(=O)OC(C)(C)C)c4)cc23)cc1 [Example 1.17, t-Butyl 2-chloro-5-(N-methyl-3-(4-(methylcarbamoyl)phenyl)pyrazolo[1,5-a]pyrdine-5-carboxamido)benzoate] |  | < 0.1 | < 0.1 |
| CNC(=O)c1ccc(-c2cnn3ccc(C(=O)N(C)c4ccc(OC(F)(F)F)c(C(=O)OC)c4)cc23)cc1 [Example 1.26, Methyl 5-(N-methyl-3-(4-(methylcarbamoyl)phenyl)pyrazolo[1,5-a]pyridine-5-carboxamido)-2-(trifluoromethoxy)benzoate] |  | 0.1 to 1 | < 0.1 |
